IC50 data for 27 compounds are collected here from US20240083900A1, “PYRAZOLO[1,5-A]PYRAZINE DERIVATIVES AS BTK INHIBITORS” (BIOGEN MA INC., priority 2020, published 2024).

In this assay the target is BTK (Homo sapiens (Human), UniProt Q06187). The experiment in a line: In Vitro BTK Kinase Assay: Btk-PolyGAT-LS Assay. It is filed as biochemical. The settings on record: BTK enzyme 0.25 nM, ATP 10 μM, polyGAT 100 nM, 30 minutes incubation, TRF readout; read-out: IC50. Here is the method:
The purpose of the BTK in vitro assay is to determine compound potency against BTK through the measurement of IC50. […] For a typical assay, a 24 μL aliquot of a ATP/peptide master mix (final concentration; ATP 10 μM, polyGAT 100 nM) in kinase buffer (10 mM Tris-HCl pH 7.5, 10 mM MgCl2, 200 μM Na3PO4, 5 mM DTT, 0.01% Triton X-100, and 0.2 mg/ml casein) is added to each well. […] The assay is incubated for 30 minutes before being stopped with 28 μL of a 50 mM EDTA solution. […] The plate is covered and incubated for 45 minutes at room temperature.

Chain of BTK (Q06187 whole entry): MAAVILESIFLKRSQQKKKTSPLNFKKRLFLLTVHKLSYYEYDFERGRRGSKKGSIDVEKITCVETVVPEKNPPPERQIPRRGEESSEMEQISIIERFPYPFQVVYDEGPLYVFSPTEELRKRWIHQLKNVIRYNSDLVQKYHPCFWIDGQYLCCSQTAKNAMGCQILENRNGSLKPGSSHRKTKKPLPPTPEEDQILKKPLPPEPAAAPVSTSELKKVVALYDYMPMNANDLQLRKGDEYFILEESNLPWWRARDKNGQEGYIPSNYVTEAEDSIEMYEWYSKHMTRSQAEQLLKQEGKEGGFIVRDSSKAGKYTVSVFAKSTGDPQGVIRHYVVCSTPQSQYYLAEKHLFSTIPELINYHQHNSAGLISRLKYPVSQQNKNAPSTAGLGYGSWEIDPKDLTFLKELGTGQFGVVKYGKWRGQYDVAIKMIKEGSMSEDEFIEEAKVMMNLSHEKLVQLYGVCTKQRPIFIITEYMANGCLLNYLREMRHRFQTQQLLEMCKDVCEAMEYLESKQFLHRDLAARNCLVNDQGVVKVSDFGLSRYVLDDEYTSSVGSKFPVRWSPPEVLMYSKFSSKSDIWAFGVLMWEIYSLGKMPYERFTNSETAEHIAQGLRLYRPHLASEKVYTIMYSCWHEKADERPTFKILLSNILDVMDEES

In general, IC50 refers to the concentration needed to halve the response being measured. `C=CC(=O)N1CCCC(Oc2nc(-c3cn(C)nc3C)cn3nccc23)CC1` (single isomer, unassigned) [Example 69 E2, 1-[4-[6-(1,3-dimethylpyrazol-4-yl)pyrazolo[1,5-a]pyrazin-4-yl]oxyazepan-1-yl]prop-2-en-1-one]: the IC50 is 10 to 1000 nM.

As to `CC#CC(=O)NC1CCCC(Oc2nc(-c3cnn(C)c3)cc3nccn23)C1` (stereo not drawn) [Example 52], the half-maximal inhibitory concentration (IC50) is 1 to 10 nM. As for `C=CC(=O)NC1CN(c2cc(-c3cnn(C)c3)cn3nccc23)CC(F)(F)C1` (stereo not drawn) [Example 89, N-(5,5-difluoro-1-(6-(1-methyl-1H-pyrazol-4-yl)pyrazolo[1,5-a]pyridin-4-yl)piperidin-3-yl)acrylamide], the figure is 10 to 1000 nM. As for `C#CC(=O)N1CCC[C@H](Oc2nc(-c3cnn(C)c3)cc3nccn23)CC1` (single isomer, unassigned) [Example 37, (R)- or (S)-1-(4-((7-(1-methyl-1H-pyrazol-4-yl)imidazo[1,2-c]pyrimidin-5-yl)oxy)azepan-1-yl)prop-2-yn-1-one], the figure is 1 to 10 nM; as for `CC#CC(=O)N1CCC[C@@H](COc2nc(-c3cnn(C)c3)cc3nccn23)C1` [Example 51], 10 to 1000 nM. As for `C=CC(=O)N1CC(C)(C)OC(C)(COc2nc(-c3cnn(C)c3)cn3nccc23)C1` (single isomer, unassigned) [Example 119, 1-(2,2,6-trimethyl-6-(((6-(1-methyl-1H-pyrazol-4-yl)pyrazolo[1,5-a]pyrazin-4-yl)oxy)methyl)morpholino)prop-2-en-1-one], the figure is 10 to 1000 nM; as for `C[C@@H]1O[C@H]1C(=O)N1CC[C@H]2[C@@H]1C[C@@]2(C)Oc1nc(-c2cnn(C)c2)cn2nccc12` (single isomer, unassigned) [Example 194], 10 to 1000 nM. `C=CC(=O)NCc1cccc(Oc2nc(-c3cnn(C)c3)cn3nccc23)c1` [Example 132, N-(3-((6-(1-methyl-1H-pyrazol-4-yl)pyrazolo[1,5-a]pyrazin-4-yl)oxy)benzyl)acrylamide]: the IC50 was in the range of 10 to 1000 nM. As for `O=C(/C=C/C(F)(F)F)Nc1cccc(Oc2nc(-c3cnn(C4CCOC4)c3)cn3nccc23)c1F` (stereo not drawn) [Example 136, (E)-4,4,4-trifluoro-N-(2-fluoro-3-((6-(1-(tetrahydrofuran-3-yl)-1H-pyrazol-4-yl)pyrazolo[1,5-a]pyrazin-4-yl)oxy)phenyl)but-2-enamide], the figure is 1 to 10 nM. With `Cn1cc(-c2cn3nccc3c(O[C@]3(C)C[C@H](N(C)C(=O)C4=CCC4)C3)n2)cn1` [Example 230, N-methyl-N-((1s,3s)-3-methyl-3-((6-(1-methyl-1H-pyrazol-4-yl)pyrazolo[1,5-a]pyrazin-4-yl)oxy)cyclobutyl)cyclobut-1-ene-1-carboxamide], the half-maximal inhibitory concentration (IC50) lay in the range of 1 to 10 nM. Consider `C=CC(=O)NC1CC2CC1CC2Oc1cc(-c2cnn(C)c2)cn2nccc12` (stereo not drawn) [Example 82, N-(5-((6-(1-methyl-1H-pyrazol-4-yl)pyrazolo[1,5-a]pyridin-4-yl)oxy)bicyclo[2.2.1]heptan-2-yl)acrylamide], for which the 50% inhibitory concentration (IC50) was 1 to 10 nM. As for `C=CC(=O)N1CCC(COc2nc(-c3cnn(C)c3)cc3nccn23)CC1` [Example 44], the figure is 10 to 1000 nM; as for `C=CC(=O)N1CCC[C@@H](Oc2cc(-c3cnn(C)c3)cc3nccn23)CC1` [Example 65, 1-[(4R)-4-[7-(1-methylpyrazol-4-yl)imidazo[1,2-a]pyridin-5-yl]oxyazepan-1-yl]prop-2-en-1-one], 1 to 10 nM. For the compound `CC#CC(=O)N(C)[C@@H]1CC[C@@H]2C[C@]2(Oc2nc(-c3cnn(C)c3)cn3nccc23)C1` (single isomer, unassigned) [Example 114], the concentration for half-maximal inhibition (IC50) lay within 10 to 1000 nM.

For `C=CC(=O)N1CCC[C@@H](Oc2nc(-c3cnc(C)s3)cn3nccc23)CC1` [Example 77, (R)-1-(4-((6-(2-methylthiazol-5-yl)pyrazolo[1,5-a]pyrazin-4-yl)oxy)azepan-1-yl)prop-2-en-1-one], the IC50 is less than 1 nM.

In the case of `C#CC(=O)N1CCC(Oc2nc(-c3cnn(C)c3)cc3nccn23)CC1` [Example 49], the IC50 is 10 to 1000 nM. As for `CN(C)C/C=C/C(=O)N[C@H]1CCC[C@@H](Oc2nc(-c3cnn(C)c3)cn3ncc(F)c23)C1` [Example 94, (E)-4-(dimethylamino)-N-((1S,3R)-3-((3-fluoro-6-(1-methyl-1H-pyrazol-4-yl)pyrazolo[1,5-a]pyrazin-4-yl)oxy)cyclohexyl)but-2-enamide], the figure is 10 to 1000 nM; as for `C=CC(=O)N1C[C@@H]2C[C@H]1C[C@H]2Oc1nc(-c2cnn(C)c2)cn2nccc12` [Example 152, 1-((1S,4S,5R)-5-((6-(1-methyl-1H-pyrazol-4-yl)pyrazolo[1,5-a]pyrazin-4-yl)oxy)-2-azabicyclo[2.2.1]heptan-2-yl)prop-2-en-1-one], 1 to 10 nM.

For the compound `C/C=C/S(=O)(=O)N1CCC[C@@H](Oc2nc(-c3cnn(C)c3)cn3nccc23)C1` [Example 17, (R,E)-6-(1-methyl-1H-pyrazol-4-yl)-4-((1-(prop-1-en-1-ylsulfonyl)piperidin-3-yl)oxy)pyrazolo[1,5-a]pyrazine], the 50% inhibitory concentration (IC50) lay in the range of 10 to 1000 nM.

As to `C=CC(=O)N1C[C@@H]2C[C@@H](Oc3nc(-c4cnn(C)c4)cn4nccc34)C[C@@H]21` (racemic) [Example 209, rac-((1S,3R,5S)-3-((6-(1-methyl-1H-pyrazol-4-yl)pyrazolo[1,5-a]pyrazin-4-yl)oxy)-6-azabicyclo[3.2.0]heptan-6-yl)prop-2-en-1-one], the IC50 was less than 1 nM. As for `C=CC(=O)N1CC2CC1CC2Nc1cc(-c2cnn(C)c2)cn2nccc12` (stereo not drawn) [Example 88, 1-(5-((6-(1-methyl-1H-pyrazol-4-yl)pyrazolo[1,5-a]pyridin-4-yl)amino)-2-azabicyclo[2.2.1]heptan-2-yl)prop-2-en-1-one], the figure is 1 to 10 nM; as for `CC#CC(=O)N1CC(C)(C)OC(C)(COc2nc(-c3cnn(C)c3)cn3nccc23)C1` (single isomer, unassigned) [Example 122, 1-(2,2,6-trimethyl-6-(((6-(1-methyl-1H-pyrazol-4-yl)pyrazolo[1,5-a]pyrazin-4-yl)oxy)methyl)morpholino)but-2-yn-1-one], 10 to 1000 nM; as for `C=CC(=O)NC1CCCC(Oc2nc(-c3cnn(C)c3)cc3nccn23)C1` (stereo not drawn) [Example 48], 1 to 10 nM. Turning to `C=CC(=O)N1CCC[C@@H](Oc2nc(-c3ccccc3)cn3nccc23)CC1` [Example 73, (R)-1-(4-((6-phenylpyrazolo[1,5-a]pyrazin-4-yl)oxy)azepan-1-yl)prop-2-en-1-one], the IC50 is 1 to 10 nM. As for `C=CC(=O)N1CCCN(Cc2nc(-c3cnn(C)c3)cn3nccc23)CC1` [Example 90, 1-(4-((6-(1-methyl-1H-pyrazol-4-yl)pyrazolo[1,5-a]pyrazin-4-yl)methyl)-1,4-diazepan-1-yl)prop-2-en-1-one], the figure is 10 to 1000 nM; as for `C=CC(=O)N(C)[C@H]1C[C@@](C)(Oc2nc(-c3cn[nH]c3)cn3nccc23)C1` [Example 80, N-((1s,3s)-3-((6-(1H-pyrazol-4-yl)pyrazolo[1,5-a]pyrazin-4-yl)oxy)-3-methylcyclobutyl)-N-methylacrylamide], less than 1 nM; as for `C=CC(=O)N1CCC(CNc2nc(-c3cnn(C)c3)cn3nccc23)CC1` [Example 18, 1-(4-(((6-(1-methyl-1H-pyrazol-4-yl)pyrazolo[1,5-a]pyrazin-4-yl)amino)methyl)piperidin-1-yl)prop-2-en-1-one], 1 to 10 nM.
